Series [1] can be described thus: Photographic single layer element: Dmax, Dmin, gamma and λmax after color development. The method, then:
Single layer photographic elements were prepared by coating a cellulose acetate-butyrate film support with a photosensitive layer containing a silver bromide emulsion at 70.2 and 140.4 mg/ft^2 for 2 and 4 equivalent couplers, respectively, gelatin at 350 mg/ft^2 and an image coupler (0.20 mmol/ft^2) dispersed in half its weight of dibutyl phthalate. The photosensitive layer was overcoated with a layer containing gelatin at 250 mg/ft^2 and bis vinylsulfonyl methyl ether hardener at 2.0 weight percent based on total gel.
Samples of each element were exposed imagewise through a stepped density test object and processed at 100° F. employing the following color developing solution, then stopped with a low pH bath, bleached, fixed, washed and dried to produce stepped colored images.
Color Developer Solution (2')
4-Amino-3-methyl-N-ethyl 3.55 g
Water to make 1 liter, pH 10.0
Densitometry in the appropriate color maximum density (Dmin and Dmax) and gamma defined as the maximum slope between any two adjacent density points.

A short description of series [2]: pKa Measurements. The series is classed as physicochemical. The settings on record: Table 1. The source says: The structural preference of the coupler for the axial conformation has important implications for […]. Due largely to the ability of the carbonyl oxygen to enolize and form H-bonds with the oxygen atoms of the dioxane ring, the pKa of the coupler is generally 1-2 units lower than pivaloyl acetanilide-based couplers. A lower pKa value means that the coupler ionizes more readily at pH 10, and results in higher coupling activity with oxidized color developer, as shown in Table 1.

[3] abbreviates: Table 4, color developer pH 10.0.

In turn, `CCC(C)(C)c1ccc(OCCCC(=O)Nc2ccc(OC)c(NC(=O)CC(=O)C3(C)COCOC3)c2)c(C(C)(C)CC)c1` [Coupler D-3] came in with a λmax in series [1] (setting [3]) of 446 nm. As usually defined, the pKa is the negative logarithm of the acid dissociation constant. Low values mean a group that gives up its proton readily, high ones a group that holds its proton tightly. `CCC(C)(C)c1ccc(OCCCC(=O)Nc2ccc(Cl)c(NC(=O)C(Oc3ccc(S(=O)(=O)c4ccc(OCc5ccccc5)cc4)cc3)C(=O)C3(C)COCOC3)c2)c(C(C)(C)CC)c1` [Coupler D-11] yielded a pKa in series [2] of 7.24.

`CCC(C)(C)c1ccc(OCCCC(=O)Nc2ccc(OC)c(NC(=O)C(Oc3ccc(S(=O)(=O)c4ccc(O)cc4)cc3)C(=O)C3(C)COC(C)(C)OC3)c2)c(C(C)(C)CC)c1` [Coupler D-7] registered a λmax in series [1] (setting [3]) of 445 nm. In series [1] (setting [3]), `CCC(C)(C)c1ccc(OCCCC(=O)Nc2ccc(C)c(NC(=O)C(Oc3ccc(S(=O)(=O)c4ccc(O)cc4)cc3)C(=O)C3(C)COCOC3)c2)c(C(C)(C)CC)c1` [Coupler D-13] showed a λmax of 452 nm. In turn, `CCC(C)(C)c1ccc(OCCCC(=O)Nc2ccc(Cl)c(NC(=O)CC(=O)C3(C)COC(C)(C)OC3)c2)c(C(C)(C)CC)c1` [Coupler D-0] showed a pKa in series [2] of 8.51. The molecule `CCC(C)(C)c1ccc(OCCCC(=O)Nc2ccc(Cl)c(NC(=O)C(Oc3ccc(S(=O)(=O)c4ccc(O)cc4)cc3)C(=O)C3(C)COCOC3)c2)c(C(C)(C)CC)c1` [Coupler D-10] had a pKa in series [2] of 7.55. The same molecule registered a λmax in series [1] (setting [3]) of 453 nm. In the case of `CCC(C)(C)c1ccc(OCCCC(=O)Nc2ccc(OC)c(NC(=O)C(Oc3ccc(S(=O)(=O)c4ccc(O)cc4)cc3)C(=O)C3(C)COCOC3)c2)c(C(C)(C)CC)c1` [Coupler D-14], the λmax in series [1] (setting [3]) is given as 448 nm. For the molecule `CCC(C)(C)c1ccc(OCCCC(=O)Nc2ccc(Cl)c(NC(=O)CC(=O)C(C)(C)C)c2)c(C(C)(C)CC)c1` [P-VI, reference compound], the pKa in series [2] is on record as 10.01. For the same molecule, the λmax in series [1] (Table 3, D99, pH 10.0, KS-2) is 447; in series [1] (setting [3]), 447 nm.

In series [1] (setting [3]), `CCCCCCCCCCCCCCCCS(=O)(=O)Nc1ccc(Cl)c(NC(=O)C(Oc2ccc(S(=O)(=O)c3ccc(OCc4ccccc4)cc3)cc2)C(=O)C(C)(C)C)c1` (stereo not drawn) [P-I, reference compound] registered a λmax of 452 nm. With `CCC(C)(C)c1ccc(OCCCC(=O)Nc2ccc(Cl)c(NC(=O)CC(=O)C3(C)COCOC3)c2)c(C(C)(C)CC)c1` [Coupler D-5], the λmax was 452 in series [1] (Table 3, D99, pH 10.0, KS-2) and 452 nm in series [1] (setting [3]). As for `CCOC1C(=O)N(C(C(=O)Nc2cc(NC(=O)CCCOc3ccc(C(C)(C)CC)cc3C(C)(C)CC)ccc2OC)C(=O)C2(C)COC(C)(C)OC2)C(=O)N1Cc1ccccc1` [Coupler D-8], the λmax in series [1] (setting [3]) is reported as 445 nm. `CCC(C)(C)c1ccc(OCCCC(=O)Nc2ccc(Cl)c(NC(=O)C(Oc3ccc(S(=O)(=O)c4ccc(OCc5ccccc5)cc4)cc3)C(=O)C(C)(C)C)c2)c(C(C)(C)CC)c1` (stereo not drawn) [P-III, reference compound] yielded a pKa in series [2] of 8.76. This molecule returned a λmax in series [1] (setting [3]) of 450 nm. In series [1] (Table 3, D99, pH 10.0, KS-2), `CCCCCCCCCCCCCCCCS(=O)(=O)Nc1ccc(OC)c(NC(=O)CC(=O)C2(C)COC(C)(C)OC2)c1` [Coupler D-2] showed a λmax of 446. In the case of `CCCCCCCCCCCCCCCCS(=O)(=O)Nc1ccc(Cl)c(NC(=O)CC(=O)C2(C)COCOC2)c1` [Coupler D-4], the pKa in series [2] stood at 8.42. Besides, the λmax in series [1] (Table 3, D99, pH 10.0, KS-2) is 454; in series [1] (setting [3]) it was 454 nm. For the molecule `CCCCCCCCCCCCCCCCS(=O)(=O)Nc1ccc(Cl)c(NC(=O)CC(=O)C(C)(C)C)c1` [P-V, reference compound], the λmax amounted to 449 in series [1] (Table 3, D99, pH 10.0, KS-2) and 449 nm in series [1] (setting [3]).

`CCC(C)(C)c1ccc(OCCCC(=O)Nc2cccc(NC(=O)C(Oc3ccc(S(=O)(=O)c4ccc(O)cc4)cc3)C(=O)C3(C)COCOC3)c2)c(C(C)(C)CC)c1` [Coupler D-12] had a λmax in series [1] (setting [3]) of 454 nm.

These data come from patent publication US5118599A, “Yellow couplers for photographic elements and processes” (Eastman Kodak Company, priority 1991, dated 1992).
